Reference: patent publication US20240342176A1, “PHARMACEUTICAL COMBINATION AND APPLICATION THEREOF” (GUANGZHOU JOYO PHARMATECH CO., LTD, priority 2021, published 2024)

Assays:
PI3Kγ = PI3Kγ (Homo sapiens (Human), UniProt P48736); test: ADP-Glo chemiluminescence enzymatic activity assay, PI3Kγ; format: biochemical; conditions: mean ± SD, N = 3, ATP 25 μM
Protocol: (§1) • 1. Research purpose: The inhibitory effect of compound I on the enzymatic activity of PI3Kδ and PI3Kγ in vitro. • 2. Experimental materials: • (1) Main instrument: Envision (PerkinElmer-2104) • (2) Main reagents: ADP-Glo kinase kit (purchased from Promega), PI3Kδ (P1108/P85a) (purchased from Millipore), and PI3Kγ (P120γ) (purchased from Millipore). • 3. Experimental methods: • 1) Preparation of buffer salt solution: A 10× buffer salt solution with a pH of 7.5 containing 500 mM HEPES, 500 mM NaCl, and 30 mM MgCl2 was prepared with ultrapure water and stored at 4° C. for later use. Before use, the above buffer salt solution was diluted to a 3.33× buffer salt solution and BSA was added to a final concentration of 0.333 mg/mL. • 2) A 100× reference compound (compound I) was prepared with a starting concentration of 100 nM, diluted in a 3-fold serial dilution to 10 concentrations and transferred to the corresponding 384 microwell plate at 50 nL/well. In the control group, 50 nL/well of DMSO was added. • 3) 3.33×PI3K solutions were prepared with the 3.33× buffer salt solution, PI3Kδ at a final concentration of 0.25 nM, PI3Kγ at a final concentration of 0.4 nM. A 3.33×PIP2:3PS solution was prepared, mixed with the enzyme solutions at a volume ratio of 1:1, and added to the 384 microwell plate in 3 μL/well. […] The luminescence value was read using Envision. • 4. […]

human Treg cells = test: In vitro pharmacodynamic experiment on human Treg cells (flow cytometry CD4, CD25, Foxp3); format: cell-based; conditions: for IC50: Homo sapiens, 120 h, five days of compound incubation, CD4, CD25, Foxp3 positive counts vs DMSO control, read-out: IC50, inhibitory activity on human Treg cells
Protocol: • 1. Research purpose: The in vitro pharmacodynamic experiment of compound I on human Treg cells. • 2. […] Experimental methods: • 1) A 96-well cell culture plate was coated with 10 μg/mL anti-human CD3, 50 μL per well, incubated at 37° C. for three hours, and then rinsed with X-VIVO medium. • 2) Human peripheral blood mononuclear cells (purchased from Hemacare) were resuscitated and stained with CellTrace Violet (CTV). • 3) After staining, Human Naive CD4+ T cells were isolated using the Human naïve CD4 isolation kit. • 4) IL-2 (10 ng/ml), CD28 (2 μg/mL), and TGF-b (1 ng/mL) were added to the cell culture medium, and different concentrations of the test compounds were added at the same time. • 5) After five days of compound incubation, CD4, CD25, and Foxp3 were detected by flow cytometry. The positive counts of CD4, CD25, and Foxp3 were calculated, and the relative survival rate and IC50 were calculated compared with the DMSO control group. • 4. Experimental results: • The experiment used the flow cytometry method to determine the in vitro pharmacodynamic experiment of the test compound I on human Treg cells. The detection results are shown in A and B of FIG. 5 and Table 3.

PI3Kδ = PI3Kδ (Homo sapiens (Human), UniProt O00329); test: ADP-Glo chemiluminescence enzymatic activity assay, PI3Kδ; format: biochemical; conditions: mean ± SD, N = 3, ATP 40 μM
Sequence of PI3Kδ (O00329 whole entry, looked up): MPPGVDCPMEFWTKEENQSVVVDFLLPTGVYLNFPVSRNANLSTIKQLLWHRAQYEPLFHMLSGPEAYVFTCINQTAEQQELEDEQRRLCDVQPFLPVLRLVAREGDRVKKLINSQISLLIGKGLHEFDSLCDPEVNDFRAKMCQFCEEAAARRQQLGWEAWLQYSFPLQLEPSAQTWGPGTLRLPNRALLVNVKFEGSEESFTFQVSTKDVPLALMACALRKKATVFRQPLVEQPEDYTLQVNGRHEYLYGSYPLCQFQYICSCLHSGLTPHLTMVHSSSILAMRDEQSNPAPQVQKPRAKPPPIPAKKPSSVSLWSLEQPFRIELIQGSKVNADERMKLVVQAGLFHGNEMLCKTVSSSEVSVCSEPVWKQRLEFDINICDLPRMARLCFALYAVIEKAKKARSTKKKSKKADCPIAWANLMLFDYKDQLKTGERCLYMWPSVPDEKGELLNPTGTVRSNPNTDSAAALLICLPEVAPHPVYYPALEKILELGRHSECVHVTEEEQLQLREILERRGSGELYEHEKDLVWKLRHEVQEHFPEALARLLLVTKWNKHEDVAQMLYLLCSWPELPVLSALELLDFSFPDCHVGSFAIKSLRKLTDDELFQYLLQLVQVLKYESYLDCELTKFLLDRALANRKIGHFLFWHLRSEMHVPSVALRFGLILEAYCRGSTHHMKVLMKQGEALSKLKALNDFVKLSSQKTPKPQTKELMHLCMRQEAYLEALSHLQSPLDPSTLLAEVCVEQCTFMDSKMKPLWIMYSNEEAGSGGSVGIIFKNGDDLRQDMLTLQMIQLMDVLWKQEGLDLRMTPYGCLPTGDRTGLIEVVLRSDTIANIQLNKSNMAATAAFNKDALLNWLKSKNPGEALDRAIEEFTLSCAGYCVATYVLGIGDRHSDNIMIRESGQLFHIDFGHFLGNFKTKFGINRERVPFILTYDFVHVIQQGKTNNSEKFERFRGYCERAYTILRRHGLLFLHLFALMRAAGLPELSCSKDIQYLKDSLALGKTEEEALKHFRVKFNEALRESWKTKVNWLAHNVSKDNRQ
Sequence of PI3Kδ (P27986 whole entry partner, looked up): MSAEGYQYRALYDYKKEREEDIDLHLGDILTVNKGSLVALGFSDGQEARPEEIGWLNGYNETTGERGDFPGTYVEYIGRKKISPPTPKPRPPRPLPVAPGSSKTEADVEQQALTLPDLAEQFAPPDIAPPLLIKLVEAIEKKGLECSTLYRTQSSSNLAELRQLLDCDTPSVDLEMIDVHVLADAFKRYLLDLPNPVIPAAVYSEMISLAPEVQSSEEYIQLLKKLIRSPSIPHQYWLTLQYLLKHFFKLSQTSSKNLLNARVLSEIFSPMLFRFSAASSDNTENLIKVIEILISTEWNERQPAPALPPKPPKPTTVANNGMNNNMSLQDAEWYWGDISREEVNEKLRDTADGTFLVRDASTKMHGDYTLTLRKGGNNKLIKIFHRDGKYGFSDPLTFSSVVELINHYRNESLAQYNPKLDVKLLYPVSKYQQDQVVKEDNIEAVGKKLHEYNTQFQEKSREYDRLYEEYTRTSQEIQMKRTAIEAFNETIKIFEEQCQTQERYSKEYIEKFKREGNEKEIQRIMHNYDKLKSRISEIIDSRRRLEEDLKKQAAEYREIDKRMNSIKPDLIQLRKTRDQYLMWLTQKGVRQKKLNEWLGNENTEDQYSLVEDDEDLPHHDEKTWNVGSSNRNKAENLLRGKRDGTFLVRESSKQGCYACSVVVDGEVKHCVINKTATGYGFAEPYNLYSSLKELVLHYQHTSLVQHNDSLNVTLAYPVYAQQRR
Protocol: as §1

Sequence of PI3Kγ (P48736 whole entry): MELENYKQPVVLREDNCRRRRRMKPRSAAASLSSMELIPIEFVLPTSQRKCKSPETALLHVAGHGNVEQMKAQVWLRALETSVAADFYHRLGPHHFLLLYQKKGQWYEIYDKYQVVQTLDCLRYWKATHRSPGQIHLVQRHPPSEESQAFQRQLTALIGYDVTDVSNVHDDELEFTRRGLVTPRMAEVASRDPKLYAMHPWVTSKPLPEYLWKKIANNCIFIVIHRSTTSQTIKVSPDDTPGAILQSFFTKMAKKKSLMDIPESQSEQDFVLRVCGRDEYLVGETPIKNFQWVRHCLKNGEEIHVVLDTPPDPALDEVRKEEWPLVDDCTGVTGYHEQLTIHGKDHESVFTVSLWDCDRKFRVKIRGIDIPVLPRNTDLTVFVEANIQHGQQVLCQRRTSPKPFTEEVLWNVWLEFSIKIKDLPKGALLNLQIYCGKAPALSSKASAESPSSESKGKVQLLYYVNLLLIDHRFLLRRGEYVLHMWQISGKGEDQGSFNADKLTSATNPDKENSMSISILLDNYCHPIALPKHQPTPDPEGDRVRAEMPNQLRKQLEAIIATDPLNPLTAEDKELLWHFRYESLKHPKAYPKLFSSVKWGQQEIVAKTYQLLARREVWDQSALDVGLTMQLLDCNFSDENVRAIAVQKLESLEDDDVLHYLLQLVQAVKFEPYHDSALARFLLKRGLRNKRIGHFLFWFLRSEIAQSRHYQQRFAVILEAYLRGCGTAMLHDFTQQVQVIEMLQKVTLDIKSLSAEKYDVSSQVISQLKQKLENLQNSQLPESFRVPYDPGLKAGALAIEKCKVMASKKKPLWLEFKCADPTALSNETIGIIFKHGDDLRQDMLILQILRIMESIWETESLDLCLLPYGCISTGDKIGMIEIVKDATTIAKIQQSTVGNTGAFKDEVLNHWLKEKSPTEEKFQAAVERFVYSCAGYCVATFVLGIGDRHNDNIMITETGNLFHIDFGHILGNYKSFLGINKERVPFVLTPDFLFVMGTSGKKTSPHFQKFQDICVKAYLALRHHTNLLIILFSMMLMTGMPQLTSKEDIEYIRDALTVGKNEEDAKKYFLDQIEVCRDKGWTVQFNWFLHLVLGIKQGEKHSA

SMILES	IC50 (PI3Kγ) [nM]	IC50 (human Treg cells) [nM]	inhibitory activity on human Treg cells relative to Idelalisib (human Treg cells; ratio of IC50 values) [times]	IC50 (PI3Kδ) [nM]
COCCOc1cnc2ccc(-c3cnc(OC)c(NS(=O)(=O)c4sc(C)nc4C)c3)cn2c1=O [Compound I]	0.29 ± 0.02	0.01	3172	0.18 ± 0.01
CC[C@H](Nc1ncnc2[nH]cnc12)c1nc2cccc(F)c2c(=O)n1-c1ccccc1 [Idelalisib, reference compound]		31.7		
